The subject of this assay is P. falciparum strain W2 (chloroquine-resistant). In words: In vitro antiplasmodial activity, SYBR Green-based assay. Type of assay: cell-based. The note with it: for SI (selectivity index): ratio LD50 (WI-26VA4) / IC50 (P. falciparum W2). How it is done: Ring-stage parasites were equally distributed in 96-well microculture plates. Serial dilutions of the compounds were performed ranging from 0.01 to 100 μg/mL. […] A fluorometer (Fluoroskan Ascent, Thermo Laboratories) with excitation at 485 nm and emission at […] was used to determine the viability of the parasites. All experiments were performed in triplicates.
Selectivity index (SI) is the ratio between the values of LD50 and IC50 […] of each compound tested.
IC50 and LD50 were determined using the equation of the curve obtained by plotting parasitemia reduction (%) or cellular death (%) vs. the concentration of the compound (log scale) using the GraphPad Prism software (version 5.0 for Windows, San Diego, California, USA). Due to the non-normality of the data distribution, the comparison of IC50 and LD50 between morpholine and piperidine was analyzed using the nonparametric Mann-Whitney U test. Statistical significance was defined at 5% (p<0.05).

[1] abbreviates: Plasmodium falciparum, W2, read-out: IC50 ± SD (drug concentration that reduced parasite viability in 50%), P. falciparum W2 chloroquine-resistant, SYBR, mean and SD of triplicate experiments.
Where [2] appears, read: read-out: IC50 ± SD (drug concentration that reduced parasite viability in 50%), P. falciparum W2 chloroquine-resistant, SYBR, mean and SD of triplicate experiments.

These results are taken from PMC9549944, “In vitro and in silico assessment of new beta amino ketones with antiplasmodial activity” (Revista da Sociedade Brasileira de Medicina Tropical, 2022).

Like-named read-outs stand apart in the source and are kept apart here.

As to `CCN(CC)CCCC(C)Nc1ccnc2cc(Cl)ccc12` (stereo not drawn) [Chloroquine (CQ), Chloroquine, reference compound], the IC50 (Plasmodium falciparum, W2, read-out: IC50 ± SD (drug concentration that reduced parasite viability in 50%)) worked out at 920 ± 10 nM.
On to `O=C(CCN1CCOCC1)c1ccccc1` [Compound 1, 3-(morpholin-4-yl)-1-phenylpropan-1-one], for which the IC50 by setting is: under setting [1], under 980 nM; under setting [2], 980 ± 10 nM.
Turning to `O=C(CCN1CCCCC1)c1ccccc1` [Compound 2, 1-phenyl-3-(piperidin-1-yl)propan-1-one], the “SI (selectivity index)” value worked out at 9.46. The IC50 under setting [1] is under 3590 nM. The IC50 under setting [2] was 3590 ± 80 nM.
With `CC(CN1CCOCC1)C(=O)c1ccccc1` (stereo not drawn) [Compound 3, 2-methyl-3-(morpholin-4-yl)-1-phenylpropan-1-one], the “SI (selectivity index)” value was over 3.07. Moreover, the IC50 under setting [1] worked out at 32530 ± 20 nM.
For `CC(CN1CCCCC1)C(=O)c1ccccc1` (stereo not drawn) [Compound 4, 2-methyl-1-phenyl-3-(piperidein-1-yl)propan-1-one], the IC50 under setting [1] was over 1000 nM and the IC50 under setting [2] worked out at 780 ± 90 nM.
As for `CCCCCCC(CN1CCCCC1)C(C)=O` (stereo not drawn) [Compound 8, 3[(piperdin-1-yl)methyl]nonan-2-one], the “SI (selectivity index)” value amounted to 0.81. In addition, under setting [1], the IC50 amounted to 48000 ± 18500 nM.
